Read-outs that look alike come from different tables or passages of the source. Values belong to the compound of their own block, whether it stands above or below them.
Legend:
[1] = 1-10 mg/day; cited from earlier work
[2] = system: subjects with type 1 diabetes and proteinuria not receiving RAS inhibitors; test: Study M96-499, Phase 2 cross-over study of atrasentan; type: in vivo, human
Excerpt: The most commonly experienced treatment-emergent adverse events in the atrasentan group were peripheral edema (64%), pulmonary edema (18%), rhinitis (36%) and headache (18%), whereas in the placebo group there was no peripheral edema, but there were reports of rhinitis (11%) and headache (56%).

[3] = system: patients with type 2 diabetic nephropathy; test: Two Phase 2b 12 week placebo-controlled studies of atrasentan in residual albuminuria; type: in vivo, human; details: for Linear regression coefficient, hemoglobin response: hemoglobin change after two weeks; for Linear regression coefficient, weight response: weight change after two weeks
Protocol: Two Phase 2b, multicenter, prospective, randomized, double-blinded, placebo-controlled, 12 week studies were conducted to evaluate the efficacy and safety of atrasentan compared to placebo in reducing residual albuminuria. Atrasentan was studied at doses of 0.75 mg QD and 1.25 mg QD. The study methodologies were the identical, but for the location. (NCT01356849 in U.S., Canada, and Taiwan; NCT10424319 in Japan). Additional clinical details can be found in Kohan, D E, et al., “Predictors of Atrasentan-Associated Fluid Retention and Change in Albuminuria in Patients with Diabetic Nephropathy,” Clin J Am Soc Nephrol, September 2015, 10:1568-1574, which is hereby incorporated by reference in its entirety. Observations in body weight changes and hemoglobin changes may be used as surrogate markers for changes in fluid retention. Demographic parameters were similar between the placebo and atrasentan 0.75 and 1.25 mg/d arms (Table 1). The following abbreviations are used within the table: BNP=B-type natriuretic peptide; DBP=diastolic blood pressure; eGFR=estimated glomerular filtration rate; HbA1c=glycated hemoglobin; RAS=renin-angiotensin system; SBP=systolic blood pressure; UACR=urinary albumin to creatinine ratio. Table 1 is reproduced in part from de Zeeuw D, et al., The endothelin antagonist atrasentan lowers residual albuminuria in patients with type 2 diabetic nephropathy. J Am Soc Nephrol 25: 1083-1093, 2014, which is hereby incorporated by reference in its entirety. Values within Table 1 are mean±standard deviation unless stated otherwise. The abbreviations used in Table 3 include BP=blood pressure; eGFR=estimated glomerular filtration rate; HbA1c=glycated hemoglobin; HOMA=homeostatic model assessment. The following covariates were included in the initial backward selection model: treatment assignment, age, gender, body weight, Hb, eGFR, albuminuria, systolic blood pressure (BP), eGFR, log transformed homeostatic metabolic assessment (HOMA) product, log-transformed B-type natriuretic peptide (BNP), thiazide and loop-diuretic use. Systolic blood pressure and atrasentan dose were not included in the final logistic regression models for body weight and hemoglobin, respectively.

[4] = system: subjects with type 2 diabetes and albuminuria on stable doses of RAS inhibitors; test: Study M10-815, Phase 2a placebo controlled study of atrasentan; type: in vivo, human; details: for reduction in the mean UACR from baseline: placebo 11%; for subjects with mild to moderate peripheral edema: placebo 9%
Protocol: In a Phase 2a double-blind, randomized, placebo controlled study (referred to herein as M10-815), subjects with type 2 diabetes and albuminuria who were on stable doses of RAS inhibitors were administered atrasentan HCl at 0.25, 0.75 or 1.75 mg QD for 8 weeks.

[5] = system: congestive heart failure (CHF); details: within the first 4-8 weeks; thought to be a consequence of fluid retention; cited from earlier work
[6] = cited from earlier work
[7] = system: participants with type 2 diabetes and overt diabetic nephropathy; details: cited from earlier work; for median decrease of UACR: median follow-up 4 months, placebo 9.7%; for discontinuation of trial medications due to adverse events: placebo 1.5%; for deaths: placebo 12
[8] = system: CHF; details: at higher doses; cited from earlier work
[9] = system: individuals with a systolic blood pressure above 140 mmHg receiving at least three blood-pressure-lowering drugs; details: cited from earlier work
[10] = system: patients with acute CHF; details: intravenous, doses greater than 1 mg/hr; cited from earlier work
[11] = 0.75 mg/day vs. placebo, after two weeks
[12] = 0.75 mg/day, Recovery (30 days)
[13] = 1.25 mg/day vs. placebo, after two weeks
[14] = 1.25 mg/day, Recovery (30 days)
[15] = after 14 weeks, 50, 100 or 300 mg once daily, non-dose-dependent

SMILES: COC(c1ccccc1)(c1ccccc1)[C@H](Oc1nc(C)cc(C)n1)C(=O)O [Ambrisentan]
edema incidence [1]: 25%

Logistic regression association with ≧1.3 g/dl fall in Hb [3, 11]: no significant association | Logistic regression odds ratio (95% CI), ≧2 kg weight gain [3, 11]: 3.0 (1.0-8.5) | Linear regression coefficient, hemoglobin response ([3]; 0.75 mg/day vs. placebo): −0.7 | Linear regression coefficient, weight response ([3]; 0.75 mg/day vs. placebo): 0.8 | BNP, median ([3]; 0.75 mg/day, Baseline): 33.0 pg/mL | Hemoglobin, Mean (SD) ([3]; 0.75 mg/day, Baseline): 12.9 (1.5) g/dL | Weight, Mean (SD) ([3]; 0.75 mg/day, Baseline): 87.1 (22.1) kg | Hemoglobin, Mean (SD) [3, 12]: 12.4 (1.5) g/dL | Weight, Mean (SD) [3, 12]: 85 (23) kg | Hemoglobin, Mean (SD) ([3]; 0.75 mg/day, Week 2): 12.0 (1.5) g/dL | Weight, Mean (SD) ([3]; 0.75 mg/day, Week 2): 88.0 (22.2) kg | Weight, Mean (SD) ([3]; 0.75 mg/day, Week 6): 87.3 (21.8) kg | BNP, median ([3]; 0.75 mg/day, Week 12): 33.1 pg/mL | Hemoglobin, Mean (SD) ([3]; 0.75 mg/day, Week 12): 11.8 (1.6) g/dL | Weight, Mean (SD) ([3]; 0.75 mg/day, Week 12): 87.3 (22.3) kg | Logistic regression odds ratio (95% CI), ≧1.3 g/dL hemoglobin fall [3, 13]: 5.6 (2.5-12.7) | Logistic regression odds ratio (95% CI), ≧2 kg weight gain [3, 13]: 6.6 (2.3-18.6) | Linear regression coefficient, hemoglobin response ([3]; 1.25 mg/day vs. placebo): −1.0 | Linear regression coefficient, weight response ([3]; 1.25 mg/day vs. placebo): 1.3 | BNP, median ([3]; 1.25 mg/day, Baseline): 33.5 pg/mL | Hemoglobin, Mean (SD) ([3]; 1.25 mg/day, Baseline): 12.9 (1.8) g/dL | Weight, Mean (SD) ([3]; 1.25 mg/day, Baseline): 88.3 (18.4) kg | Hemoglobin, Mean (SD) [3, 14]: 12.5 (1.9) g/dL | Weight, Mean (SD) [3, 14]: 88 (19) kg | Hemoglobin, Mean (SD) ([3]; 1.25 mg/day, Week 2): 11.8 (1.8) g/dL | Weight, Mean (SD) ([3]; 1.25 mg/day, Week 2): 89.4 (18.7) kg | Weight, Mean (SD) ([3]; 1.25 mg/day, Week 6): 89.6 (19.0) kg | BNP, median ([3]; 1.25 mg/day, Week 12): 37.0 pg/mL | Hemoglobin, Mean (SD) ([3]; 1.25 mg/day, Week 12): 11.8 (1.8) g/dL | Weight, Mean (SD) ([3]; 1.25 mg/day, Week 12): 89.0 (19.2) kg | hemoglobin (Hb) decrease ([3]; both atrasentan groups after 2 weeks, persisted throughout treatment): approximately 1 g/dl | Hb after treatment discontinuation ([3]; by 30 days after treatment discontinuation): normalized | change in B-natriuretic peptide (BNP) ([3]; patients who received atrasentan): no significant change | subjects with mild to moderate peripheral edema ([4]; 0.25 mg QD): 14% | subjects with mild to moderate peripheral edema ([4]; 0.75 mg QD): 18% | subjects with mild to moderate peripheral edema ([4]; 1.75 mg QD): 46%
SMILES: CCCCN(CCCC)C(=O)CN1C[C@H](c2ccc3c(c2)OCO3)[C@@H](C(=O)O)[C@@H]1c1ccc(OC)cc1 [Atrasentan, (2R,3R,4S)-4-(1,3-benzodioxol-5-yl)-1-[2-(dibutylamino)-2-oxoethyl]-2-(4-methoxyphenyl)pyrrolidine-3-carboxylic acid]
mean arterial blood pressure (BP) ([2]; 5 mg QD): reduced | pulmonary edema, treatment-emergent adverse event ([2]; 5 mg QD): 18% | peripheral edema, treatment-emergent adverse event ([2]; 5 mg QD, none in placebo): 64% | rhinitis, treatment-emergent adverse event ([2]; 5 mg QD, placebo 11%): 36% | headache, treatment-emergent adverse event ([2]; 5 mg QD, placebo 56%): 18% | reduction in urinary albumin excretion ([2]; 5 mg daily (QD)): 65% | UACR, median ([3]; 0.75 mg/day, Baseline): 878 mg/g | UACR, median [3, 12]: 1051 mg/g | UACR, median ([3]; 0.75 mg/day, Week 2): 573 mg/g | UACR, median ([3]; 0.75 mg/day, Week 6): 636 mg/g | UACR, median ([3]; 0.75 mg/day, Week 12): 521 mg/g | UACR, median ([3]; 1.25 mg/day, Baseline): 826 mg/g | UACR, median [3, 14]: 727 mg/g | UACR, median ([3]; 1.25 mg/day, Week 2): 515 mg/g | UACR, median ([3]; 1.25 mg/day, Week 6): 461 mg/g | UACR, median ([3]; 1.25 mg/day, Week 12): 470 mg/g | body weight increase ([3]; after 2 weeks of treatment, placebo decreased approximately 1 kg): approximately 1 kg | reduction in the mean UACR from baseline ([4]; 0.25 mg QD for 8 weeks, non-significant, P=0.291): 21% | reduction in the mean UACR from baseline ([4]; 0.75 mg QD for 8 weeks, 1-sided P=0.023): 42% | reduction in the mean UACR from baseline ([4]; 1.75 mg QD for 8 weeks, 1-sided P=0.073): 35%

SMILES: COc1ccccc1Oc1c(NS(=O)(=O)c2ccc(C(C)(C)C)cc2)nc(-c2ncccn2)nc1OCCO [Bosentan]
worsening of congestive heart failure [5]: associated with early worsening of congestive heart failure (CHF)

SMILES: Cc1cc2c(cc1CC(=O)c1sccc1S(=O)(=O)Nc1onc(C)c1Cl)OCO2 [Sitaxsentan]
edema ([6]; higher doses): significantly causes edema | edema ([6]; lower doses (100 or 300 mg daily)): less tendency to cause edema

SMILES: COc1ccccc1Oc1c(NS(=O)(=O)c2ccc(C)cn2)nc(-c2ccncc2)nc1OC [avosentan]
median decrease of UACR ([7]; 25 mg): 44% | discontinuation of trial medications due to adverse events ([7]; 25 mg): 19.69% | deaths ([7]; 25 mg): 21 | median decrease of UACR ([7]; 50 mg): 49% | discontinuation of trial medications due to adverse events ([7]; 50 mg): 18.2% | deaths ([7]; 50 mg): 17

SMILES: COc1cc(OC)nc(O[C@H](C(=O)O)C(OC)(c2ccccc2)c2ccccc2)n1 [darusentan]
worsening of CHF [8]: tended to worsen CHF | reduction in diastolic clinic seated blood pressure compared with placebo [9, 15]: ~5 mmHg | reduction in systolic clinic seated blood pressure compared with placebo [9, 15]: about 10 mmHg | patients discontinuing because of fluid retention or peripheral edema ([9]; combined darusentan treatment groups): 2% | patients with edema and/or fluid retention reported ([9]; darusentan groups combined, placebo 14%): 27% | patients with cardiac-related serious adverse events ([9]; patients taking darusentan): five

SMILES: COc1ccccc1Oc1c(NS(=O)(=O)c2ccc(C(C)C)cn2)nc(-c2ccnc(-c3nnn[nH]3)c2)nc1OCCO [tezosentan]
urine output [10]: reduced urine output

Reference: patent publication US20160128980A1, “METHODS OF TREATING CKD USING PREDICTORS OF FLUID RETENTION” (AbbVie Inc., priority 2014, published 2016)
